Test results from PubChem BioAssay AID1963437 (Molecular Pharmacology Branch, DTP, NCI, 2024).
Values joined by “and” are separate entries in the source; they are usually repeats but may differ in a detail not shown here. Equal values may be shown once.

Test system: OVCAR-8 complex spheroid, growth inhibition
Assay: Anticancer human tumor OVCAR-8 cell line growth inhibition [Asc];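 also: spheroids exposed to agents for 7 days before readout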;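 as to viability, T/C: percent viability relative to DMSO vehicle wells taken as 100%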
Conditions: for viability, T/C: stronger effect = lower value; active = viability on the fitted dose curve at most 10% of control; inactive = the rest
Procedure, shortened: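 Tumor cells were grown as complex spheroids with human endothelial cells (HUVEC) and human mesenchymal stem cells as stroma. Agents were tested alone and in combination, in half-log steps down from the clinical Cmax, or from 10 microM where Cmax was unknown.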

[1] = curve of first compound, second compound 0.00316 µM
[2] = curve of first compound, second compound 0.01 µM
[3] = curve of first compound, second compound 0.0316 µM
[4] = curve of first compound, second compound 0.1 µM
[5] = curve of first compound, second compound 0.316 µM
[6] = curve of first compound, second compound 1 µM
[7] = second compound 0.00316 µM, first compound 0.0316 µM
[8] = second compound 0.00316 µM, first compound 0.1 µM
[9] = second compound 0.00316 µM, first compound 0.316 µM
[10] = second compound 0.00316 µM, first compound 1 µM
[11] = second compound 0.01 µM, first compound 0.0316 µM
[12] = second compound 0.01 µM, first compound 0.1 µM
[13] = second compound 0.01 µM, first compound 0.316 µM
[14] = second compound 0.01 µM, first compound 1 µM
[15] = second compound 0.0316 µM, first compound 0.00316 µM
[16] = second compound 0.0316 µM, first compound 0.01 µM
[17] = second compound 0.0316 µM, first compound 0.0316 µM
[18] = second compound 0.0316 µM, first compound 0.1 µM
[19] = second compound 0.0316 µM, first compound 0.316 µM
[20] = second compound 0.0316 µM, first compound 1 µM
[21] = second compound 0.1 µM, first compound 0.00316 µM
[22] = second compound 0.1 µM, first compound 0.01 µM
[23] = second compound 0.1 µM, first compound 0.0316 µM
[24] = second compound 0.1 µM, first compound 0.1 µM
[25] = second compound 0.1 µM, first compound 0.316 µM
[26] = second compound 0.1 µM, first compound 1 µM
[27] = second compound 0.316 µM, first compound 0.00316 µM
[28] = second compound 0.316 µM, first compound 0.01 µM
[29] = second compound 0.316 µM, first compound 0.0316 µM
[30] = second compound 0.316 µM, first compound 0.1 µM
[31] = second compound 0.316 µM, first compound 0.316 µM
[32] = second compound 0.316 µM, first compound 1 µM
[33] = second compound 1 µM, first compound 0.00316 µM
[34] = second compound 1 µM, first compound 0.01 µM
[35] = second compound 1 µM, first compound 0.0316 µM
[36] = second compound 1 µM, first compound 0.1 µM
[37] = second compound 1 µM, first compound 0.316 µM
[38] = second compound 1 µM, first compound 1 µM

CCN1CCN(Cc2ccc(Nc3ncc(F)c(-c4cc(F)c5nc(C)n(C(C)C)c5c4)n3)nc2)CC1 + CNC(C)C(=O)NC1CN(S(=O)(=O)c2cccc(S(=O)(=O)N3CCC4CCC(C(=O)NC(c5ccccc5)c5ccccc5)N4C(=O)C(NC(=O)C(C)NC)C3)c2)CCC2CCC(C(=O)NC(c3ccccc3)c3ccccc3)N2C1=O
> 1000 nM: IC50 [1] | IC50 [2] | IC50 [3] | IC50 [4] | IC50 [5] | IC50 [6]
inactive: viability, T/C (second compound 0.00316 µM, first compound 0.00316 µM) 102% | viability, T/C (second compound 0.00316 µM, first compound 0.01 µM) 95.7% | viability, T/C [7] 96% | viability, T/C [8] 85.9% | viability, T/C [9] 111% | viability, T/C [10] 114% | viability, T/C (second compound 0.01 µM, first compound 0.00316 µM) 91.3% | viability, T/C (second compound 0.01 µM, first compound 0.01 µM) 86.7% | viability, T/C [11] 85% | viability, T/C [12] 85.3% | viability, T/C [13] 99.9% | viability, T/C [14] 148% | viability, T/C [15] 90.6% | viability, T/C [16] 88.5% | viability, T/C [17] 84.7% | viability, T/C [18] 81.2% | viability, T/C [19] 91.2% | viability, T/C [20] 116% | viability, T/C [21] 84% | viability, T/C [22] 78% | viability, T/C [23] 83.9% | viability, T/C [24] 92.5% | viability, T/C [25] 96.7% | viability, T/C [26] 111% | viability, T/C [27] 75.6% | viability, T/C [28] 72% | viability, T/C [29] 82.5% | viability, T/C [30] 74.7% | viability, T/C [31] 102% | viability, T/C [32] 111% | viability, T/C [33] 79.8% | viability, T/C [34] 72.3% | viability, T/C [35] 88.1% | viability, T/C [36] 82.6% | viability, T/C [37] 91.8% | viability, T/C [38] 104%

CCN1CCN(Cc2ccc(Nc3ncc(F)c(-c4cc(F)c5nc(C)n(C(C)C)c5c4)n3)nc2)CC1 + Cc1c(S(C)(=O)=O)c(-c2cc(F)cc(N3CCN(c4ccc(NS(=O)(=O)c5ccc(NC(CCN6CCC(C(=O)OCCCP(=O)(O)O)CC6)CSc6ccccc6)c(S(=O)(=O)C(F)(F)F)c5)cc4)CC3)c2)c(-c2ccc(Cl)cc2)n1C(C)C
> 1000 nM: IC50 [3] | IC50 [4] | IC50 [5] | IC50 [6] | IC50 (curve of first compound, second compound 3.16 µM) | IC50 (curve of first compound, second compound 10 µM)
inactive: viability, T/C [15] 102% | viability, T/C [16] 96.1% | viability, T/C [17] 95.6% | viability, T/C [18] 98.2% | viability, T/C [19] 112% | viability, T/C [20] 128% | viability, T/C [21] 90.3% | viability, T/C [22] 87.8% | viability, T/C [23] 90.4% | viability, T/C [24] 101% | viability, T/C [25] 112% | viability, T/C [26] 118% | viability, T/C [27] 93.6% | viability, T/C [28] 97.5% | viability, T/C [29] 103% | viability, T/C [30] 107% | viability, T/C [31] 117% | viability, T/C [32] 121% | viability, T/C [33] 89.1% | viability, T/C [34] 105% | viability, T/C [35] 99.7% | viability, T/C [36] 107% | viability, T/C [37] 97.5% | viability, T/C [38] 122% | viability, T/C (second compound 3.16 µM, first compound 0.00316 µM) 108% | viability, T/C (second compound 3.16 µM, first compound 0.01 µM) 92.3% | viability, T/C (second compound 3.16 µM, first compound 0.0316 µM) 103% | viability, T/C (second compound 3.16 µM, first compound 0.1 µM) 89.7% | viability, T/C (second compound 3.16 µM, first compound 0.316 µM) 106% | viability, T/C (second compound 3.16 µM, first compound 1 µM) 95.4% | viability, T/C (second compound 10 µM, first compound 0.00316 µM) 105% | viability, T/C (second compound 10 µM, first compound 0.01 µM) 111% | viability, T/C (second compound 10 µM, first compound 0.0316 µM) 90.2% | viability, T/C (second compound 10 µM, first compound 0.1 µM) 116% | viability, T/C (second compound 10 µM, first compound 0.316 µM) 93.1% | viability, T/C (second compound 10 µM, first compound 1 µM) 109%

O=C(c1ccc(F)c(F)c1Nc1ccc(I)cc1F)N1CC(O)([C@@H]2CCCCN2)C1
> 1000 nM: IC50 (curve of compound)
inactive: viability, T/C (compound 0.00316 µM) 95.4% and 98.1% and 96.1% | viability, T/C (compound 0.01 µM) 122% and 101% and 111% | viability, T/C (compound 0.0316 µM) 138% and 165% and 133% | viability, T/C (compound 0.1 µM) 153% and 165% and 190% | viability, T/C (compound 0.316 µM) 210% and 216% and 228% | viability, T/C (compound 1 µM) 107% and 80.8% and 86.8%

C=CC(=O)N1CCN(c2nc(=O)n(-c3c(C)ccnc3C(C)C)c3nc(-c4c(O)cccc4F)c(F)cc23)C(C)C1 (stereo not drawn) + CNC(C)C(=O)NC1CN(S(=O)(=O)c2cccc(S(=O)(=O)N3CCC4CCC(C(=O)NC(c5ccccc5)c5ccccc5)N4C(=O)C(NC(=O)C(C)NC)C3)c2)CCC2CCC(C(=O)NC(c3ccccc3)c3ccccc3)N2C1=O
> 10000 nM: IC50 [1] | IC50 [2] | IC50 [3] | IC50 [4] | IC50 [5] | IC50 [6]
inactive: viability, T/C [7] 105% | viability, T/C [8] 89.3% | viability, T/C [9] 105% | viability, T/C [10] 98.7% | viability, T/C (second compound 0.00316 µM, first compound 3.16 µM) 88.3% | viability, T/C (second compound 0.00316 µM, first compound 10 µM) 112% | viability, T/C [11] 96.9% | viability, T/C [12] 95% | viability, T/C [13] 83.6% | viability, T/C [14] 89.2% | viability, T/C (second compound 0.01 µM, first compound 3.16 µM) 90.6% | viability, T/C (second compound 0.01 µM, first compound 10 µM) 122% | viability, T/C [17] 94.3% | viability, T/C [18] 90.5% | viability, T/C [19] 91.2% | viability, T/C [20] 81.9% | viability, T/C (second compound 0.0316 µM, first compound 3.16 µM) 86.4% | viability, T/C (second compound 0.0316 µM, first compound 10 µM) 103% | viability, T/C [23] 85.8% | viability, T/C [24] 81.4% | viability, T/C [25] 89.7% | viability, T/C [26] 86.1% | viability, T/C (second compound 0.1 µM, first compound 3.16 µM) 80% | viability, T/C (second compound 0.1 µM, first compound 10 µM) 92.2% | viability, T/C [29] 80% | viability, T/C [30] 84.2% | viability, T/C [31] 107% | viability, T/C [32] 69.4% | viability, T/C (second compound 0.316 µM, first compound 3.16 µM) 79.6% | viability, T/C (second compound 0.316 µM, first compound 10 µM) 90.8% | viability, T/C [35] 68.4% | viability, T/C [36] 79.8% | viability, T/C [37] 79.1% | viability, T/C [38] 84.7% | viability, T/C (second compound 1 µM, first compound 3.16 µM) 65.5% | viability, T/C (second compound 1 µM, first compound 10 µM) 69.1%
